In article PMC6259458, “Investigating the Spectrum of Biological Activity of Ring-Substituted Salicylanilides and Carbamoylphenylcarbamates” (Molecules, 2010):
Converted amounts (≈) assume the structure as drawn.

Test system: photosynthetic electron transport (PET) in spinach chloroplasts
Assay: Inhibition of photosynthetic electron transport (PET) in spinach chloroplasts, DCPIP photoreduction
Assay type: biochemical, Spinacia oleracea L.
Conditions: not given
Description: Chloroplasts were prepared from spinach (Spinacia oleracea L.) according to Masarovicova and Kralova. The inhibition of photosynthetic electron transport (PET) in spinach chloroplasts was determined spectrophotometrically (Genesys 6, Thermo Scientific, USA), using an artificial electron acceptor 2,6-dichlorophenol-indophenol (DCIPP) according to Kralova et al., and the rate of photosynthetic electron transport was monitored as a photoreduction of DCPIP. The measurements were carried out in phosphate buffer (0.02 mol/L, pH 7.2) containing sucrose (0.4 mol/L), MgCl2 (0.005 mol/L) and NaCl (0.015 mol/L). The chlorophyll content was 30 mg/L in these experiments and the samples were irradiated (~100 W/m^2) from 10 cm distance with a halogen lamp (250 W) using a 4 cm water filter to prevent warming of the samples (suspension temperature 22 °C). The studied compounds were dissolved in DMSO due to their limited water solubility.

| Compound | PET-inhibiting / biological activity in words |
| --- | --- |
| O=C(Nc1cc(C(F)(F)F)ccc1Cl)c1ccc([N+](=O)[O-])cc1 [Compound 10, N-[2-Chloro-5-(trifluoromethyl)phenyl]-4-nitrobenzamide] | medium PET inhibiting activity |
| Nc1ccc(C(=O)NCc2ccccc2Cl)cc1 [Compound 11, 4-Amino-N-(2-chlorobenzyl)benzamide] | very low activity |
| Nc1ccc(C(=O)Nc2cc(C(F)(F)F)ccc2Cl)cc1 [Compound 12, 4-Amino-N-[2-chloro-5-(trifluoromethyl)phenyl]benzamide] | did not show any biological activity in any of the assays |

Same assay, conditions: DCPIP photoreduction, pH 7.2

| IC50 | Compound |
| --- | --- |
| 331 µM | Cc1cccc(C)c1NC(=O)c1ccccc1O [Compound 2, N-(2,6-Dimethylphenyl)-2-hydroxybenzamide] |
| 15 µM | CCOc1ccccc1NC(=O)c1ccccc1O [Compound 4, N-(2-Ethoxyphenyl)-2-hydroxybenzamide] |
| 44.8 µM | CCCOc1ccccc1NC(=O)c1ccccc1O [Compound 5, 2-Hydroxy-N-(2-propoxyphenyl)benzamide] |
| 50.1 µM | O=C(Nc1cc(C(F)(F)F)ccc1Cl)c1ccc([N+](=O)[O-])cc1 [Compound 10, N-[2-Chloro-5-(trifluoromethyl)phenyl]-4-nitrobenzamide] |
| 398 µM | Nc1ccc(C(=O)NCc2ccccc2Cl)cc1 [Compound 11, 4-Amino-N-(2-chlorobenzyl)benzamide] |
| 1.6 µM | COC(=O)Nc1ccc(C(=O)NCc2ccccc2Cl)cc1 [Compound 13, Methyl 4-(2-chlorobenzylcarbamoyl)phenylcarbamate] |

Test system: Staphylococcus epidermidis H 6966/08
Assay: In vitro anti-bacterial susceptibility, Mueller-Hinton broth
Assay type: cell-based
Conditions: H6966/08, 24 h, MIC = IC90 value, NA = no significant activity, read-out: MIC SE 24 h

| MIC | Compound |
| --- | --- |
| > 500 µM | Cc1cccc(C)c1NC(=O)c1ccccc1O [Compound 2, N-(2,6-Dimethylphenyl)-2-hydroxybenzamide] |
| 125 µM (≈ 32.2 µg/mL) | CCOc1ccccc1NC(=O)c1ccccc1O [Compound 4, N-(2-Ethoxyphenyl)-2-hydroxybenzamide] |
| 31.2 µM (≈ 8.48 µg/mL) | CCCOc1ccccc1NC(=O)c1ccccc1O [Compound 5, 2-Hydroxy-N-(2-propoxyphenyl)benzamide] |

Same assay, conditions: H6966/08, 48 h, MIC = IC90 value, NA = no significant activity, read-out: MIC SE 48 h

| MIC | Compound |
| --- | --- |
| > 500 µM | Cc1cccc(C)c1NC(=O)c1ccccc1O [Compound 2, N-(2,6-Dimethylphenyl)-2-hydroxybenzamide] |
| 125 µM (≈ 32.2 µg/mL) | CCOc1ccccc1NC(=O)c1ccccc1O [Compound 4, N-(2-Ethoxyphenyl)-2-hydroxybenzamide] |
| 31.2 µM (≈ 8.48 µg/mL) | CCCOc1ccccc1NC(=O)c1ccccc1O [Compound 5, 2-Hydroxy-N-(2-propoxyphenyl)benzamide] |

Test system: photosynthetic apparatus of spinach chloroplasts (PS 2 / PS 1)
Assay: Site of action: restoration of PET by artificial electron donors (DPC, DCPIPH2)
Assay type: biochemical, Spinacia oleracea L.
Conditions: DCPIPH2 40 μmol/L added to treated chloroplasts
Description: To further determine the site of action of the studied compounds, experiments with 1,5-diphenylcarbazide (DPC) were performed. DPC is an artificial electron donor for PS 2 with a known site of action in the Z^•/D^• intermediate. The site of action of the artificial electron acceptor 2,6-dichlorophenol-indophenol (DCPIP) used for monitoring the Hill reaction is plastoquinone on the acceptor side of PS 2 [51]. Thus, if the part of the photosynthetic electron transport chain between manganese cluster and Z/D is inhibited, then DPC will restore PET through PS 2.

| Compound | restoration of PET through PS 1 after addition of DCPIPH2 |
| --- | --- |
| COC(=O)Nc1ccc(C(=O)NCc2ccccc2Cl)cc1 [Compound 13, Methyl 4-(2-chlorobenzylcarbamoyl)phenylcarbamate] | completely restored |

Same assay, conditions: DPC 2 mmol/L added to treated chloroplasts

| Compound | restoration of PET through PS 2 after addition of DPC |
| --- | --- |
| COC(=O)Nc1ccc(C(=O)NCc2ccccc2Cl)cc1 [Compound 13, Methyl 4-(2-chlorobenzylcarbamoyl)phenylcarbamate] | not restored |

Test system: Trichophyton mentagrophytes 445
Assay: In vitro anti-fungal susceptibility, broth microdilution
Assay type: cell-based
Conditions: 72 h, MIC = IC50 value, NA = no significant activity, read-out: MIC TM 72 h
Description: (§1) The broth microdilution test was used for the assessment of in vitro anti-fungal activity of the synthesized compounds against Absidia corymbifera 272 (AC) and Trichophyton mentagrophytes 445 (TM). Fluconazole (FLU) was used as the standard since it is a clinically used anti-mycotic drug. The procedure was performed with a two-fold dilution of the compounds in […]., Prague, Czech Republic) buffered to pH 7.0 with 0.165 mol of 3-morpholino-propane-1-sulfonic acid (MOPS, Sigma, Germany). […] Drug-free controls were included. […] The values of the minimum inhibitory concentration (MICs) were determined after 24 and 48 h of static incubation at 35 °C. For T. mentagrophytes, the final MICs were determined after 72 and 120 h of incubation.

| MIC | Compound |
| --- | --- |
| 250 µM (≈ 60.3 µg/mL) | Cc1cccc(C)c1NC(=O)c1ccccc1O [Compound 2, N-(2,6-Dimethylphenyl)-2-hydroxybenzamide] |
| 62.5 µM (≈ 16.1 µg/mL) | CCOc1ccccc1NC(=O)c1ccccc1O [Compound 4, N-(2-Ethoxyphenyl)-2-hydroxybenzamide] |
| 31.2 µM (≈ 8.48 µg/mL) | CCCOc1ccccc1NC(=O)c1ccccc1O [Compound 5, 2-Hydroxy-N-(2-propoxyphenyl)benzamide] |

Same assay, conditions: 120 h, MIC = IC50 value, NA = no significant activity, read-out: MIC TM 120 h

| MIC | Compound |
| --- | --- |
| 500 µM (≈ 121 µg/mL) | Cc1cccc(C)c1NC(=O)c1ccccc1O [Compound 2, N-(2,6-Dimethylphenyl)-2-hydroxybenzamide] |
| 62.5 µM (≈ 16.1 µg/mL) | CCOc1ccccc1NC(=O)c1ccccc1O [Compound 4, N-(2-Ethoxyphenyl)-2-hydroxybenzamide] |
| 31.2 µM (≈ 8.48 µg/mL) | CCCOc1ccccc1NC(=O)c1ccccc1O [Compound 5, 2-Hydroxy-N-(2-propoxyphenyl)benzamide] |

Test system: Absidia corymbifera 272
Assay: as above
Assay type: cell-based
Conditions: Lichtheimia corymbifera, 272, 24 h; read-out: MIC AC 24 h
Description: as §1

| MIC | Compound |
| --- | --- |
| > 250 µM | Cc1cccc(C)c1NC(=O)c1ccccc1O [Compound 2, N-(2,6-Dimethylphenyl)-2-hydroxybenzamide] |
| 62.5 µM (≈ 16.1 µg/mL) | CCOc1ccccc1NC(=O)c1ccccc1O [Compound 4, N-(2-Ethoxyphenyl)-2-hydroxybenzamide] |
| 31.2 µM (≈ 8.48 µg/mL) | CCCOc1ccccc1NC(=O)c1ccccc1O [Compound 5, 2-Hydroxy-N-(2-propoxyphenyl)benzamide] |

Same assay, conditions: Lichtheimia corymbifera, 272, 48 h; read-out: MIC AC 48 h

| MIC | Compound |
| --- | --- |
| > 250 µM | Cc1cccc(C)c1NC(=O)c1ccccc1O [Compound 2, N-(2,6-Dimethylphenyl)-2-hydroxybenzamide] |
| 125 µM (≈ 32.2 µg/mL) | CCOc1ccccc1NC(=O)c1ccccc1O [Compound 4, N-(2-Ethoxyphenyl)-2-hydroxybenzamide] |
| 31.2 µM (≈ 8.48 µg/mL) | CCCOc1ccccc1NC(=O)c1ccccc1O [Compound 5, 2-Hydroxy-N-(2-propoxyphenyl)benzamide] |

Test system: not listed separately
Assay: Lipophilicity determination by RP-HPLC (capacity factor k / log k)
Assay type: physicochemical
Conditions: C18 column, MeOH 70% / H2O 30%, isocratic
Description: Hydrophobicities (log P/Clog P) of the compounds 1-5 and 8-14 were calculated using two commercially available programs (ChemDraw Ultra 10.0 and ACD/LogP) and also measured by means of the RP-HPLC determination of capacity factors k with subsequent calculation of log k. The procedure was performed under isocratic conditions with methanol as an organic modifier in the mobile phase using an end-capped non-polar C18 stationary RP column. The results are shown in Table 1 and illustrated in Figure 1.
A Waters Alliance 2695 XE HPLC separation module and a Waters Photodiode Array Detector 2996 (Waters Corp., Milford, MA, USA) were used. A Symmetry® C18 5 μm, 4.6 × 250 mm, Part No. WAT054275 (Waters Corp., Milford, MA, USA) chromatographic column was used. The HPLC separation process was monitored by Empower™ 2 Chromatography Data Software, Waters 2009 (Waters Corp., Milford, MA, USA). A mixture of MeOH p.a. (70%) and H2O-HPLC – Mili-Q Grade (30%) was used as a mobile phase. The total flow of the column was 1.0 mL/min, injection volume 30 μL, column temperature 30 °C and sample temperature 10°C. The detection wavelength of 210 nm was chosen. The KI methanolic solution was used for the dead time (tD) determination. Retention times (tR) were measured in minutes. The capacity factors k were calculated using the Empower™ 2 Chromatography Data Software according to formula k = (tR - tD)/tD, where tR is the retention time of the solute, whereas tD denotes the dead time obtained using an unretained analyte. Log k, calculated from the capacity factor k, is used as the lipophilicity index converted to log P scale.

| log k | Compound |
| --- | --- |
| 0.6807 | Cc1cccc(C)c1NC(=O)c1ccccc1O [Compound 2, N-(2,6-Dimethylphenyl)-2-hydroxybenzamide] |
| 0.7515 | CCOc1ccccc1NC(=O)c1ccccc1O [Compound 4, N-(2-Ethoxyphenyl)-2-hydroxybenzamide] |
| 0.8401 | CCCOc1ccccc1NC(=O)c1ccccc1O [Compound 5, 2-Hydroxy-N-(2-propoxyphenyl)benzamide] |
| 0.8269 | O=C(Nc1cc(C(F)(F)F)ccc1Cl)c1ccc([N+](=O)[O-])cc1 [Compound 10, N-[2-Chloro-5-(trifluoromethyl)phenyl]-4-nitrobenzamide] |
| 0.5886 | Nc1ccc(C(=O)NCc2ccccc2Cl)cc1 [Compound 11, 4-Amino-N-(2-chlorobenzyl)benzamide] |
| 0.6345 | COC(=O)Nc1ccc(C(=O)NCc2ccccc2Cl)cc1 [Compound 13, Methyl 4-(2-chlorobenzylcarbamoyl)phenylcarbamate] |

Test system: methicilin resistant Staphylococcus aureus H 5996/08
Assay: In vitro anti-bacterial susceptibility, Mueller-Hinton broth
Assay type: cell-based
Conditions: MRSA; methicillin-resistant Staphylococcus aureus, 24 h, MIC = IC90 value; NA = no significant activity; read-out: MIC MRSA 24 h

| MIC | Compound |
| --- | --- |
| > 500 µM | Cc1cccc(C)c1NC(=O)c1ccccc1O [Compound 2, N-(2,6-Dimethylphenyl)-2-hydroxybenzamide] |
| 125 µM (≈ 32.2 µg/mL) | CCOc1ccccc1NC(=O)c1ccccc1O [Compound 4, N-(2-Ethoxyphenyl)-2-hydroxybenzamide] |
| 31.2 µM (≈ 8.48 µg/mL) | CCCOc1ccccc1NC(=O)c1ccccc1O [Compound 5, 2-Hydroxy-N-(2-propoxyphenyl)benzamide] |

Same assay, conditions: MRSA; methicillin-resistant Staphylococcus aureus, 48 h, MIC = IC90 value; NA = no significant activity; read-out: MIC MRSA 48 h

| MIC | Compound |
| --- | --- |
| > 500 µM | Cc1cccc(C)c1NC(=O)c1ccccc1O [Compound 2, N-(2,6-Dimethylphenyl)-2-hydroxybenzamide] |
| 125 µM (≈ 32.2 µg/mL) | CCOc1ccccc1NC(=O)c1ccccc1O [Compound 4, N-(2-Ethoxyphenyl)-2-hydroxybenzamide] |
| 31.2 µM (≈ 8.48 µg/mL) | CCCOc1ccccc1NC(=O)c1ccccc1O [Compound 5, 2-Hydroxy-N-(2-propoxyphenyl)benzamide] |

Test system: not given
Assay: not given
Set-up: method as in PMID 1151976
Conditions: parameter of the substituents in the anilide part; cited from earlier work

| Compound | MR (bulk parameter, reflecting bulkiness) | σ (Hammett's parameter) |
| --- | --- | --- |
| Cc1cccc(C)c1NC(=O)c1ccccc1O [Compound 2, N-(2,6-Dimethylphenyl)-2-hydroxybenzamide] | 9.4 | 0.20 |
| CCOc1ccccc1NC(=O)c1ccccc1O [Compound 4, N-(2-Ethoxyphenyl)-2-hydroxybenzamide] | 11.3 | 0.02 |
| CCCOc1ccccc1NC(=O)c1ccccc1O [Compound 5, 2-Hydroxy-N-(2-propoxyphenyl)benzamide] | 15.9 | – |
| O=C(Nc1cc(C(F)(F)F)ccc1Cl)c1ccc([N+](=O)[O-])cc1 [Compound 10, N-[2-Chloro-5-(trifluoromethyl)phenyl]-4-nitrobenzamide] | 8.7 | 1.10 |
| Nc1ccc(C(=O)NCc2ccccc2Cl)cc1 [Compound 11, 4-Amino-N-(2-chlorobenzyl)benzamide] | 4.7 | 0.67 |
| Nc1ccc(C(=O)Nc2cc(C(F)(F)F)ccc2Cl)cc1 [Compound 12, 4-Amino-N-[2-chloro-5-(trifluoromethyl)phenyl]benzamide] | 8.7 | 1.10 |
| COC(=O)Nc1ccc(C(=O)NCc2ccccc2Cl)cc1 [Compound 13, Methyl 4-(2-chlorobenzylcarbamoyl)phenylcarbamate] | 4.7 | 0.67 |
